From patent publication US11279733B2, “Peptide antibiotics” (priority 2017, dated 2022)
In brackets after ≈: the same amount, converted by molar mass. Read-outs that look alike come from different tables or passages of the source. Positions of bridges follow the written chain, without caps; N, C: chain ends. Non-standard residues stand in square brackets, D forms with d. Residues, ends and D or L forms follow the SMILES beside them. *: point of attachment. Isonicotinoyl(2-Ph) = O=C(c1ccnc(-c2ccccc2)c1)*; Benzoyl(4-OPh) = O=C(c1ccc(Oc2ccccc2)cc1)*; Benzoyl(4-Ph) = O=C(c1ccc(-c2ccccc2)cc1)*; Butanoyl(4-OPh) = O=C(CCCOc1ccccc1)*; X1 = CCCCCCCN1CCC(C(=O)*)CC1; dDab = NCC[C@@H](N)C(=O)O; Dab = NCC[C@H](N)C(=O)O; X5 = O=C(CCCCCCCO)*

How the values were obtained:
[1] = tested on: K. pneumoniae ATCC BAA-2146, NDM-1 pos; details: ATCC BAA-2146
How it was run: (§1)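 Mid-log cultures grown in Mueller Hinton broth at 37° C were tested by 2-fold broth microdilution at 5×10^5 CFU/mL final. Compounds were dissolved in water and tested over a final range of 32 to 0.015 μg/mL.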

[2] = tested on: K. pneumoniae GN_106, PmxR; details: GN 106, PmxR
How it was run: as §1

[3] = tested on: P. aeruginosa GN_105, PmxR; details: GN 105, PmxR
How it was run: as §1

[4] = tested on: K. pneumoniae ATCC 700603, MDR; details: ATCC 700603
How it was run: as §1

E. coli ATCC 25922 = details: ATCC 25922
How it was run: as §1

A. baumannii GN_093 PmxR = details: GN 093 PmxR
How it was run: as §1

P. aeruginosa ATCC 27853 = details: ATCC 27853
How it was run: as §1

K. pneumoniae ATCC 13883 = details: ATCC 13883
How it was run: as §1

A. baumannii ATCC 19606 = details: ATCC 19606
How it was run: as §1

[5] = tested on: S. aureus ATCC 25923, MSSA; details: ATCC 25923
How it was run: as §1

[6] = tested on: P. aeruginosa GN_043, PmxR
How it was run: as §1

[7] = tested on: K. pneumoniae GN_102 PmxR; details: GN 102 PmxR
How it was run: as §1

in vitro [8] = details: human
How it was run: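 HK2 cells were seeded at 2000 per well in DMEM/F12 with 10% FBS and left to attach for 24 h at 37 °C, 5% CO2. They were then exposed for 24 h to 3-fold peptide dilutions starting from 600 μM solutions in quadruplicate. LDH release was read at 450 nm, and CC50 was fitted from dose-response curves.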

in vitro [9] = details: human; remark: listed apart in the source
How it was run: (§2)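 Compound exposure lasted 24 h, following 24 h attachment of 4000 cells/well at 37° C under 5% CO2.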

in vitro [10] = details: human; remark: listed apart in the source
How it was run: as §2

| Compound | MIC K. pneumoniae ATCC BAA-2146, NDM-1 pos [1] [µg/mL] | MIC K. pneumoniae GN_106, PmxR [2] [µg/mL] | MIC P. aeruginosa GN_105, PmxR [3] [µg/mL] | MIC K. pneumoniae ATCC 700603, MDR [4] [µg/mL] | MIC E. coli ATCC 25922 (E. coli ATCC 25922) [µg/mL] | MIC A. baumannii GN_093 PmxR (A. baumannii GN_093 PmxR) [µg/mL] | MIC P. aeruginosa ATCC 27853 (P. aeruginosa ATCC 27853) [µg/mL] | MIC K. pneumoniae ATCC 13883 (K. pneumoniae ATCC 13883) [µg/mL] | MIC A. baumannii ATCC 19606 (A. baumannii ATCC 19606) [µg/mL] | MIC S. aureus ATCC 25923, MSSA [5] [µg/mL] | MIC P. aeruginosa GN_043, PmxR ([6]; P. aeruginosa GN_043, PmxR) [µg/mL] | MIC K. pneumoniae GN_102 PmxR [7] [µg/mL] | CC50 at 24 h (in vitro [8]) [µM] | CC50 at 24 h (in vitro [9]) [µM] | CC50 at 24 h (in vitro [10]) [µM] | MIC P. aeruginosa GN_043, PmxR [6] [µg/mL] |
| --- | --- | --- | --- | --- | --- | --- | --- | --- | --- | --- | --- | --- | --- | --- | --- | --- |
| CC(C)C[C@@H]1NC(=O)[C@H](CCN)NC(=O)[C@H](CCN)NC(=O)[C@H](Cc2ccccc2)NC(=O)[C@@H](CC(C)C)NC(=O)[C@H](CCN)NC(=O)[C@@H](NC(=O)[C@@H](CCN)NC(=O)c2ccnc(-c3ccccc3)c2)CCNC1=O [compound 6517, 3Phe4-PyCO-D-Dab-cyc[L-Dab-L-Dab-D-Leu-L-Phe-L-Dab-L-Dab-L-Leu]] ({Isonicotinoyl(2-Ph)}-[dDab][Dab][Dab][dL]F[Dab][Dab]L; lactam 2-C) | 32 (≈ 30.3 µM) | 32 (≈ 30.3 µM) | 4 (≈ 3.79 µM) | 8 (≈ 7.58 µM) | 8 (≈ 7.58 µM) | >32 | 2 (≈ 1.9 µM) | 32 (≈ 30.3 µM) | >32 | >32 | 1 (≈ 0.948 µM) | >32 | > 300 | > 300 | > 300 | – |
| CC(C)C[C@@H]1NC(=O)[C@H](CCN)NC(=O)[C@H](CCN)NC(=O)[C@H](Cc2ccccc2)NC(=O)[C@@H](CC(C)C)NC(=O)[C@H](CCN)NC(=O)[C@@H](NC(=O)[C@@H](CCN)NC(=O)c2ccc(-c3ccccc3)cc2)CCNC1=O [compound 6518, Ph-4-PhCO-D-Dab-cyc[L-Dab-L-Dab-D-Leu-L-Phe-L-Dab-L-Dab-L-Leu]] ({Benzoyl(4-Ph)}-[dDab][Dab][Dab][dL]F[Dab][Dab]L; lactam 2-C) | 16 (≈ 15.2 µM) | 32 (≈ 30.4 µM) | 2 (≈ 1.9 µM) | 8 (≈ 7.59 µM) | 2 (≈ 1.9 µM) | >32 | 2 (≈ 1.9 µM) | 16 (≈ 15.2 µM) | >32 | 32 (≈ 30.4 µM) | 2 (≈ 1.9 µM) | >32 | 180 | ≥ 300 | > 300 | – |
| CC(C)C[C@@H]1NC(=O)[C@H](CCN)NC(=O)[C@H](CCN)NC(=O)[C@H](Cc2ccccc2)NC(=O)[C@@H](CC(C)C)NC(=O)[C@H](CCN)NC(=O)[C@@H](NC(=O)[C@@H](CCN)NC(=O)c2ccc(Oc3ccccc3)cc2)CCNC1=O [compound 6519, Ph-4-OPhCO-D-Dab-cyc[L-Dab-L-Dab-D-Leu-L-Phe-L-Dab-L-Dab-L-Leu]] ({Benzoyl(4-OPh)}-[dDab][Dab][Dab][dL]F[Dab][Dab]L; lactam 2-C) | 16 (≈ 14.9 µM) | 32 (≈ 29.9 µM) | 4 (≈ 3.74 µM) | 8 (≈ 7.47 µM) | 2 (≈ 1.87 µM) | 32 (≈ 29.9 µM) | 2 (≈ 1.87 µM) | 16 (≈ 14.9 µM) | >32 | 32 (≈ 29.9 µM) | 1 (≈ 0.934 µM) | >32 | 163 | > 300 | > 300 | – |
| CC(C)C[C@@H]1NC(=O)[C@H](CCN)NC(=O)[C@H](CCN)NC(=O)[C@H](Cc2ccccc2)NC(=O)[C@@H](CC(C)C)NC(=O)[C@H](CCN)NC(=O)[C@@H](NC(=O)[C@@H](CCN)NC(=O)CCCOc2ccccc2)CCNC1=O [compound 6521, 4-phenoxybutanoic acid-D-Dab-cyc[L-Dab-L-Dab-D-Leu-L-Phe-L-Dab-L-Dab-L-Leu]] ({Butanoyl(4-OPh)}-[dDab][Dab][Dab][dL]F[Dab][Dab]L; lactam 2-C) | 16 (≈ 15.4 µM) | 32 (≈ 30.9 µM) | 16 (≈ 15.4 µM) | 16 (≈ 15.4 µM) | 8 (≈ 7.72 µM) | >32 | 2 (≈ 1.93 µM) | 32 (≈ 30.9 µM) | >32 | >32 | 2 (≈ 1.93 µM) | 16 (≈ 15.4 µM) | 290 | > 300 | > 300 | – |
| CC(C)C[C@@H]1NC(=O)[C@H](CCN)NC(=O)[C@H](CCN)NC(=O)[C@H](CC(C)C)NC(=O)[C@@H](Cc2ccccc2)NC(=O)[C@H](CCN)NC(=O)[C@@H](NC(=O)[C@@H](CCN)NC(=O)CCCCCCCO)CCNC1=O [compound 6522, 8OH-nC7CO-D-Dab-cyc[L-Dab-L-Dab-D-Phe-L-Leu-L-Dab-L-Dab-L-Leu]] (X5-[dDab][Dab][Dab][dF]L[Dab][Dab]L; lactam 2-C) | >32 | >32 | >32 | >32 | >32 | >32 | 2 (≈ 1.97 µM) | >32 | >32 | >32 | – | >32 | 208 | > 300 | > 300 | 2 (≈ 1.97 µM) |
| CCCCCCCN1CCC(C(=O)N[C@H](CCN)C(=O)N[C@H]2CCNC(=O)[C@H](CC(C)C)NC(=O)[C@H](CCN)NC(=O)[C@H](CCN)NC(=O)[C@H](CC(C)C)NC(=O)[C@@H](Cc3ccccc3)NC(=O)[C@H](CCN)NC2=O)CC1 [compound 6524, 1-heptylpiperidine-4-carboxylic acid-D-Dab-cyc[L-Dab-L-Dab-D-Phe-L-Leu-L-Dab-L-Dab-L-Leu]] (X1-[dDab][Dab][Dab][dF]L[Dab][Dab]L; lactam 2-C) | 32 (≈ 29.5 µM) | 32 (≈ 29.5 µM) | 2 (≈ 1.85 µM) | >32 | 32 (≈ 29.5 µM) | >32 | 1 (≈ 0.923 µM) | >32 | >32 | 32 (≈ 29.5 µM) | – | >32 | 106 | > 300 | > 300 | 0.5 (≈ 0.461 µM) |
